Assays:
[1] = test system: ear edema induced by dinitrofluorobenzene in male ICR mice; assay: Delay-type hypersensitivity test (DNFB-induced ear edema); format: in vivo; conditions: DTHT mice, topical treatment
Procedure: Male mice were sensitized through topical application of 20 μl of 0.5% (v/v) dinitrofluorobenzene (DNFB) in acetone onto the shaved abdomen on days 1 and 2. Challenge was then preformed in day 6 by applying DNFB (20 μl, 0.5%, v/v) on the left inner and outer ear surfaces of mice. DMY (at doses of 0.5, 1, 2 mg/ear) and DEX (0.025 mg/ear, Sigma-Aldrich) dissolved in acetone was topically applied (20 μl) to the ears at 2nd, 24th, 48th, and 72nd hour after the challenge. The mice were sacrificed by cervical dislocation, and then the same area of the ears was punched from each animal. Spleens and thymuses were isolated and weighted. The ear edema was calculated according to the differences between the weight of the right and left ears. The control group was treated only with DNFB.

[2] = test system: collagen II induced arthritis in female Wistar rats; assay: Collagen II induced arthritis (CIA); format: in vivo
Procedure: Collagen II solution (collagen, 2 mg/ml in 0.05M acetic acid, Chondrex 20022, Redmond, Wash., USA) was emulsified with an equal volume of incomplete Freund's adjuvant (IFA, Chondrex 7002, Redmond, Wash., USA) at 4° C. using a high-speed homogenizer. In the experiment of CIA, DMY was encapsulated with HP-CD (1:8.48) and then dissolved in the normal saline with drug concentrations of 50 and 100 mg/kg body weight. Rats were intradermally injected at the base of the tail with 100 μl collagen/incomplete Freund's adjuvant (IFA) emulsion containing […] of collagen II by the use of a glass syringe equipped with a locking hub and a 27-G needle. On day 7 after the primary immunization, all the rats were given a booster injection of 100 μg of collagen II in IFA. On the day after the onset of arthritis (day 13), the CIA rats were exposed to a daily intraperitoneal administration of DMY (50 and 100 mg/kg) until day 30 of the study. DEX (0.1 mg/kg, one per day), MTX (3.75 mg/kg, twice per week), and indomethacin (1 mg/kg, one per day) were used as positive reference drugs. The rats were inspected daily from the onset of arthritis characterized by edema and/or erythema in the paws. The incidence and severity of arthritis were evaluated using an arthritic scoring system, and bi-hind paw volumes and body weight were measured every 2 days started on the day when the arthritic signs were firstly visible (day 13). In the arthritic scoring system, lesions (i.e., the clinical arthritic signs) of the four paws of each rat were graded from 0 to 4 according to the extent of both edema and erythema of the periarticular tissues. As such, 16 was the potential maximum of the combined arthritic scores per animal. The hind paw volumes were measured using a plethysmometer chamber (7140 UGO. Basile, Comerio, Italy) and expressed as the mean volume change of both hind paws of the rats. Body weight of the rats was monitored with a 0.1 g precision balance (Sartorius AG, Goettingen, Germany). On day 30, all rats were sacrificed with liver, spleen and thymus being collected and weighted. The organ index for a specific organ is equal to the ratio of the weight of that organ to a body weight of 100 g.

Compound	body weight [1]	spleen weight ([1]; FIGS. 9B and C)	thymus weight ([1]; FIGS. 9B and C)	organ indexes of spleen and/or thymus ([2]; rat, in vivo)	organ indexes of spleen and/or thymus ([2]; CIA rats, day 30, FIG. 10C)	body weight ([2]; CIA rats, FIG. 100D)
C[C@@H]1C[C@H]2[C@@H]3CCC4=CC(=O)C=C[C@]4(C)[C@@]3(F)[C@@H](O)C[C@]2(C)[C@@]1(O)C(=O)CO [DEX, reference compound]	greatly reduced	decreased	decreased	significant reduction		
COc1ccc2c(c1)c(CC(=O)O)c(C)n2C(=O)c1ccc(Cl)cc1 [indomethacin, reference compound]					significant reduction	significant reduction in body weight
CN(Cc1cnc2nc(N)nc(N)c2n1)c1ccc(C(=O)N[C@@H](CCC(=O)O)C(=O)O)cc1 [MTX, reference compound]				significant reduction		
